Reference: patent publication US12643883B2, “Solid state forms of a kinase inhibitor” (Deciphera Pharmaceuticals, LLC, priority 2023, dated 2026)

Key:
Assay type in all cases: physicochemical
[1] = Hydration experiment, slurry of crystalline anhydrous form in deionized water; conditions: successive 4-hour heat-cool cycles between 40° C. and room temperature for 72 hours
Procedure: In a hydration experiment, a slurry of the crystalline anhydrous form of the compound represented by Formula (I) and deionized water was subjected to successive 4-hour heat-cool cycles between 40° C. and room temperature for 72 hours.

[2] = Hydration of the crystalline anhydrous form in low water activity solvents; conditions: water activity 0.1, Ambient, XRPD
Procedure: The hydration of the crystalline anhydrous form was studied using aqueous solvent systems with low water activity of 0.1. Slurries of the crystalline anhydrous form in the respective solvent were agitated for 6 days at room temperature. Aliquots of isolated materials were analyzed after 24, 48, and 144 hours of agitation. Table 12 summarizes the experiment conditions and isolated crystalline forms, as determined by XRPD.

[3] = Static storage stability of crystalline dihydrate and anhydrous forms (XRPD, DSC, KF once weekly for four weeks)
Procedure: The stability of crystalline dihydrate and anhydrous forms of the compound represented by Formula (I) at varying relative humidity (RH) and temperature was investigated.
For example, the stability of crystalline dihydrate and anhydrous forms of the compound represented by Formula (I), as prepared according to Example 1 and Example 2, respectively, was studied under other conditions by placing aliquots of each form in static storage at conditions of 40° C./75% RH, 25° C./97% RH, 40° C./0% RH and 25° C./0% RH and analyzing the aliquots once weekly for four weeks using XRPD, DSC, and KF.

[4] = static storage 25° C./0% RH, Week 1
[5] = static storage 25° C./0% RH, Week 2
[6] = static storage 25° C./0% RH, Week 3
[7] = static storage 25° C./0% RH, Week 4
[8] = static storage 25° C./97% RH, Week 1
[9] = static storage 25° C./97% RH, Week 2
[10] = static storage 25° C./97% RH, Week 3
[11] = static storage 25° C./97% RH, Week 4
[12] = static storage 40° C./0% RH, Week 1
[13] = static storage 40° C./0% RH, Week 2
[14] = static storage 40° C./0% RH, Week 3
[15] = static storage 40° C./0% RH, Week 4
[16] = static storage 40° C./75% RH, Week 1
[17] = static storage 40° C./75% RH, Week 2
[18] = static storage 40° C./75% RH, Week 3
[19] = static storage 40° C./75% RH, Week 4
[20] = static storage 25° C./0% RH, Week 4, listed as crystalline dihydrate form (having average crystal sizes of about 1 mm), dihydrate
[21] = static storage 40° C./0% RH, Week 1, dihydrate
[22] = static storage 40° C./0% RH, Week 4, listed as crystalline dihydrate form (having average crystal sizes of about 1 mm), dihydrate

Cc1nc(-c2cnc(NC(C)C)n(C)c2=O)ccc1Oc1ccnc(-c2cnn(C)c2)c1 [2-(isopropylamino)-3-methyl-5-(6-methyl-5-((2-(1-methyl-1H-pyrazol-4-yl)pyridin-4-yl)oxy)pyridin-2-yl)pyrimidin-4 (3H)-one]
isolated solid identified by XRPD [1]: crystalline dihydrate form
Observed Forms 24 h ([2]; slurry in Acetone/water (99:1)): Anhydrous
Observed Forms 144 h ([2]; slurry in Acetone/water (99:1)): Anhydrous
Observed Forms 24 h ([2]; slurry in MEK/water (99:1)): Anhydrous
Observed Forms 144 h ([2]; slurry in MEK/water (99:1)): Dihydrate
stability under all storage conditions ([3]; 40° C./75% RH, 25° C./97% RH, 40° C./0% RH and 25° C./0% RH, after 4 weeks): remained stable
KF (%) [3, 4]: 0.1%
XRPD [3, 4]: Anhydrous
KF (%) [3, 5]: 0.1%
XRPD [3, 5]: Anhydrous
KF (%) [3, 6]: 0.0%
XRPD [3, 6]: Anhydrous
KF (%) [3, 7]: 0.2%
XRPD [3, 7]: Anhydrous
KF (%) [3, 8]: 0.3%
XRPD [3, 8]: Anhydrous
KF (%) [3, 9]: 0.3%
XRPD [3, 9]: Anhydrous
KF (%) [3, 10]: 0.2%
XRPD [3, 10]: Anhydrous
KF (%) [3, 11]: 0.4%
XRPD [3, 11]: Anhydrous
KF (%) [3, 12]: 0.1%
XRPD [3, 12]: Anhydrous
KF (%) [3, 13]: 0.0%
XRPD [3, 13]: Anhydrous
KF (%) [3, 14]: 0.0%
XRPD [3, 14]: Anhydrous
KF (%) [3, 15]: 0.2%
XRPD [3, 15]: Anhydrous
KF (%) [3, 16]: 0.3%
XRPD [3, 16]: Anhydrous
KF (%) [3, 17]: 0.2%
XRPD [3, 17]: Anhydrous
KF (%) [3, 18]: 0.1%
XRPD [3, 18]: Anhydrous
KF (%) [3, 19]: 0.3%
XRPD [3, 19]: Anhydrous

Cc1nc(-c2cnc(NC(C)C)n(C)c2=O)ccc1Oc1ccnc(-c2cnn(C)c2)c1 [Dihydrate form of the compound represented by Formula (I) (h] [2-(isopropylamino)-3-methyl-5-(6-methyl-5-((2-(1-methyl-1H-pyrazol-4-yl)pyridin-4-yl)oxy)pyridin-2-yl)pyrimidin-4 (3H)-one dihydrate]
XRPD ([3]; static storage 25° C./0% RH, Week 1, dihydrate): Dihydrate
KF (%) ([3]; static storage 25° C./0% RH, Week 1, dihydrate, dihydrate crystals about 10-50 µm): 7.5%
XRPD ([3]; static storage 25° C./0% RH, Week 2, dihydrate): Dihydrate
KF (%) ([3]; static storage 25° C./0% RH, Week 2, dihydrate, dihydrate crystals about 10-50 µm): 7.7%
XRPD ([3]; static storage 25° C./0% RH, Week 3, dihydrate): Dihydrate
KF (%) ([3]; static storage 25° C./0% RH, Week 3, dihydrate, dihydrate crystals about 10-50 µm): 8.1%
XRPD ([3]; static storage 25° C./0% RH, Week 4, dihydrate): Dihydrate
KF (%) ([3]; static storage 25° C./0% RH, Week 4, dihydrate, dihydrate crystals about 10-50 µm): 7.9%
KF (%) [3, 20]: 5.8%
XRPD [3, 20]: partially converted to the crystalline anhydrous form
XRPD ([3]; static storage 25° C./97% RH, Week 1, dihydrate): Dihydrate
KF (%) ([3]; static storage 25° C./97% RH, Week 1, dihydrate, dihydrate crystals about 10-50 µm): 7.6%
XRPD ([3]; static storage 25° C./97% RH, Week 2, dihydrate): Dihydrate
KF (%) ([3]; static storage 25° C./97% RH, Week 2, dihydrate, dihydrate crystals about 10-50 µm): 7.5%
XRPD ([3]; static storage 25° C./97% RH, Week 3, dihydrate): Dihydrate
KF (%) ([3]; static storage 25° C./97% RH, Week 3, dihydrate, dihydrate crystals about 10-50 µm): 7.9%
XRPD ([3]; static storage 25° C./97% RH, Week 4, dihydrate): Dihydrate
KF (%) ([3]; static storage 25° C./97% RH, Week 4, dihydrate, dihydrate crystals about 10-50 µm): 7.9%
XRPD ([3]; static storage 25° C./97% RH, Week 4, listed as crystalline dihydrate form (having average crystal sizes of about 1 mm), dihydrate): remained stable and unchanged
XRPD [3, 21]: Pattern 4
KF (%) ([3]; static storage 40° C./0% RH, Week 1, dihydrate, dihydrate crystals about 10-50 µm): 7.5%
XRPD ([3]; static storage 40° C./0% RH, Week 1, listed as crystalline dihydrate form (having crystal sizes in the range of about 10-50 μm , dihydrate)): Pattern 4
XRPD ([3]; static storage 40° C./0% RH, Week 2, dihydrate): Pattern 4
KF (%) ([3]; static storage 40° C./0% RH, Week 2, dihydrate, dihydrate crystals about 10-50 µm): 7.4%
XRPD ([3]; static storage 40° C./0% RH, Week 2, listed as crystalline dihydrate form (having crystal sizes in the range of about 10-50 μm , dihydrate)): Pattern 4
XRPD ([3]; static storage 40° C./0% RH, Week 3, dihydrate): Anhydrous
KF (%) ([3]; static storage 40° C./0% RH, Week 3, dihydrate, dihydrate crystals about 10-50 µm): 7.0%
XRPD ([3]; static storage 40° C./0% RH, Week 3, listed as crystalline dihydrate form (having crystal sizes in the range of about 10-50 μm , dihydrate)): Pattern 4 and peaks at 9.9° and 10.6°
KF (%) ([3]; static storage 40° C./0% RH, Week 4, dihydrate, dihydrate crystals about 10-50 µm): 3.4%
KF (%) [3, 22]: 0.2%
XRPD [3, 22]: partially converted to the crystalline anhydrous form
XRPD ([3]; static storage 40° C./0% RH, Week 4, listed as crystalline dihydrate form (having crystal sizes in the range of about 10-50 μm , dihydrate)): Pattern 4 and peaks at 9.9° and 10.6°
XRPD ([3]; static storage 40° C./75% RH, Week 1, dihydrate): Dihydrate
KF (%) ([3]; static storage 40° C./75% RH, Week 1, dihydrate, dihydrate crystals about 10-50 µm): 7.5%
XRPD ([3]; static storage 40° C./75% RH, Week 2, dihydrate): Dihydrate
KF (%) ([3]; static storage 40° C./75% RH, Week 2, dihydrate, dihydrate crystals about 10-50 µm): 7.9%
XRPD ([3]; static storage 40° C./75% RH, Week 3, dihydrate): Dihydrate
KF (%) ([3]; static storage 40° C./75% RH, Week 3, dihydrate, dihydrate crystals about 10-50 µm): 8.0%
XRPD ([3]; static storage 40° C./75% RH, Week 4, dihydrate): Dihydrate
KF (%) ([3]; static storage 40° C./75% RH, Week 4, dihydrate, dihydrate crystals about 10-50 µm): 7.9%
XRPD ([3]; static storage 40° C./75% RH, Week 4, listed as crystalline dihydrate form (having average crystal sizes of about 1 mm), dihydrate): remained stable and unchanged

Cc1nc(-c2cnc(NC(C)C)n(C)c2=O)ccc1Oc1ccnc(-c2cnn(C)c2)c1 [ground crystalline dihydrate form, 2-(isopropylamino)-3-methyl-5-(6-methyl-5-((2-(1-methyl-1H-pyrazol-4-yl)pyridin-4-yl)oxy)pyridin-2-yl)pyrimidin-4 (3H)-one dihydrate]
XRPD [3, 21]: Pattern 4 and the crystalline anhydrous form
